The record followed here is ChEMBL document CHEMBL6182889, “Discovery of the first-in-class DOT1L PROTAC degrader” (Eur J Med Chem, 2025).

For experiment [1], the target named is T1, von Hippel-Lindau disease tumor suppressor/Histone-lysine N-methyltransferase, H3 lysine-79 specific (Homo sapiens, UniProt Q8TEK3+P40337). In words: PROTAC activity at VHL/DOT1L in mixed-lineage leukemia rearranged (MLL-r) human MV4-11 cells assessed as induction of DOT1L degradation incubated for 24 hrs by western blot analysis. It counts as cell-based. (In general: In western blotting, separated proteins are transferred to a membrane and probed.)

For experiment [2], the target named is T1, von Hippel-Lindau disease tumor suppressor/Histone-lysine N-methyltransferase, H3 lysine-79 specific. Kind of experiment: PROTAC activity at VHL/DOT1L in mixed-lineage leukemia rearranged (MLL-r) human THP-1 cells assessed as induction of DOTIL degradation by measuring fold change in DOT1L protein level at 3 uM incubated for 8 hrs by western blot analysis relative to control. It counts as cell-based.
Target sequence in this assay (P40337 whole entry, looked up): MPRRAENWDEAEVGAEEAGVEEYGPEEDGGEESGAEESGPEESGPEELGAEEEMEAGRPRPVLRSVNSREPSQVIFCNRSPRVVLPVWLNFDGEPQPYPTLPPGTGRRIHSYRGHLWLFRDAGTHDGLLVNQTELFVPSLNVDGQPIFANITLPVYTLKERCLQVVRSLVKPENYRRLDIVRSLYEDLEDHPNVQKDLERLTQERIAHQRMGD
Target sequence in this assay (Q8TEK3 whole entry, looked up): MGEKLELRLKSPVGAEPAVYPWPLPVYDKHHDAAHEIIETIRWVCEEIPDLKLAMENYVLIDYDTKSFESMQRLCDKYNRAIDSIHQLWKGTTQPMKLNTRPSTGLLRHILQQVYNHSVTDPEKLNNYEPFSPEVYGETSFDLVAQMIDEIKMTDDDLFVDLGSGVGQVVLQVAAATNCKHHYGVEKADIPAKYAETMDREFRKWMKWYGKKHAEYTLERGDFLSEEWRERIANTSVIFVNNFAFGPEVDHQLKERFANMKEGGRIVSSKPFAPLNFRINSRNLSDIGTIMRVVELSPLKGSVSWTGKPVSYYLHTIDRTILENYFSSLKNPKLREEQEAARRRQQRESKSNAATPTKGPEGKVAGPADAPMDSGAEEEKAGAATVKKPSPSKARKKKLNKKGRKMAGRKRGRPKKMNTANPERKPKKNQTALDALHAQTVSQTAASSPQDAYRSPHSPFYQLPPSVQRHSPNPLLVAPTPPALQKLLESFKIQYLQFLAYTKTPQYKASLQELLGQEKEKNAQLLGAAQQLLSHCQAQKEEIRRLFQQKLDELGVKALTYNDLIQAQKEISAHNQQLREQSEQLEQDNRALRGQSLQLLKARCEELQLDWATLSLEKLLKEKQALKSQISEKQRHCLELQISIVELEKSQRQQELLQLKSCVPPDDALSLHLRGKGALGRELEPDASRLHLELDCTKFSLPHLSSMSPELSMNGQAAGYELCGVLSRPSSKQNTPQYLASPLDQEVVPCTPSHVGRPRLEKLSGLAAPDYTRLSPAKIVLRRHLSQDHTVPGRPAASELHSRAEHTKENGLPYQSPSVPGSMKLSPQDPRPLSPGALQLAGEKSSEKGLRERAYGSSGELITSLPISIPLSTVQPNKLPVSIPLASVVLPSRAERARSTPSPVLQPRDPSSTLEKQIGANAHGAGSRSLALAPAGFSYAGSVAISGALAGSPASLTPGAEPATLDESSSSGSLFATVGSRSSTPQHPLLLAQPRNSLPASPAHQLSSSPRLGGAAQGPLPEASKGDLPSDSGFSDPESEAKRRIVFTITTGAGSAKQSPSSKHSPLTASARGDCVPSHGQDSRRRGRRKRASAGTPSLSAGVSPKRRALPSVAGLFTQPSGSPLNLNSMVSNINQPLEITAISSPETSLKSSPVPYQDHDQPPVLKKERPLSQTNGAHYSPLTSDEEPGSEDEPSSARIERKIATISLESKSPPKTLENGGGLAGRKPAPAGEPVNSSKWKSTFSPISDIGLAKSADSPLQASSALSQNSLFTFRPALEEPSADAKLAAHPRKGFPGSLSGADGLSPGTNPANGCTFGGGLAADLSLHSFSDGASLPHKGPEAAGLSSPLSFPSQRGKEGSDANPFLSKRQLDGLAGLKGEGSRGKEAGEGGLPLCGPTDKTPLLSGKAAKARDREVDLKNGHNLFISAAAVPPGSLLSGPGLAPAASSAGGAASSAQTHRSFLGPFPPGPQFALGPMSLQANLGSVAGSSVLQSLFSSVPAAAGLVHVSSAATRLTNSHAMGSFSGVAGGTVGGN

Experiment [3] shares this target. In words: PROTAC activity at VHL/DOT1L in mixed-lineage leukemia rearranged (MLL-r) human THP-1 cells assessed as induction of DOTIL degradation by measuring fold change in H3K79Me2 level at 3 uM incubated for 2 hrs by western blot analysis relative to control. It counts as cell-based.
Target sequence in this assay (P40337 whole entry, looked up): as the sequence (P40337 whole entry, looked up) above
Target sequence in this assay (Q8TEK3 whole entry, looked up): as the sequence (Q8TEK3 whole entry, looked up) above
The target is the same in experiment [4]. Kind of experiment: PROTAC activity at VHL/DOT1L in mixed-lineage leukemia rearranged (MLL-r) human MV4-11 cells assessed as induction of DOTIL degradation by measuring fold change in H3K79Me2 level at 3 uM incubated for 1 hr by western blot analysis relative to control. It counts as cell-based.
Target sequence in this assay (P40337 whole entry, looked up): as the sequence (P40337 whole entry, looked up) above
Target sequence in this assay (Q8TEK3 whole entry, looked up): as the sequence (Q8TEK3 whole entry, looked up) above
The target is the same in experiment [5]. Kind of experiment: PROTAC activity at VHL/DOT1L in mixed-lineage leukemia rearranged (MLL-r) human MV4-11 cells assessed as induction of DOTIL degradation by measuring fold change in H3K79Me2 level at 3 uM incubated for 24 hrs by western blot analysis relative to control. It counts as cell-based.
Target sequence in this assay (P40337 whole entry, looked up): as the sequence (P40337 whole entry, looked up) above
Target sequence in this assay (Q8TEK3 whole entry, looked up): as the sequence (Q8TEK3 whole entry, looked up) above
The next experiment deals with MOLM-13. In words: Effect on DOT1L mRNA expression in mixed-lineage leukemia rearranged (MLL-r) human MOLM-13 cells at 3 uM incubated for 24 hrs by RT-qPCR analysis. It counts as functional, cell-based. On the technique in general: In qPCR the cycle at which signal appears reflects the starting amount.
Experiment [6] addresses Histone-lysine N-methyltransferase, H3 lysine-79 specific (Homo sapiens) (UniProt Q8TEK3). Kind of experiment: Inhibition of human DOT1L using oligonucleosomes and SAM as substrate at 4.6 nM by radiometric Hotspot assay.
Experiment [7] concerns the target DNA (cytosine-5)-methyltransferase 3A (Homo sapiens) (UniProt Q9Y6K1). Kind of experiment: Inhibition of human DNMT3a using lambda DNA and SAM as substrate at 10 uM by radiometric Hotspot assay.
Experiment [8] has as its target DNA (cytosine-5)-methyltransferase 3B (Homo sapiens) (UniProt Q9UBC3). Kind of experiment: Inhibition of human full length DNMT3b using lambda DNA and SAM as substrate at 10 uM by radiometric Hotspot assay.
In experiment [9] the target is T2, Histone-lysine N-methyltransferase EHMT2 (Homo sapiens) (UniProt Q96KQ7).
T2 sequence (whole entry): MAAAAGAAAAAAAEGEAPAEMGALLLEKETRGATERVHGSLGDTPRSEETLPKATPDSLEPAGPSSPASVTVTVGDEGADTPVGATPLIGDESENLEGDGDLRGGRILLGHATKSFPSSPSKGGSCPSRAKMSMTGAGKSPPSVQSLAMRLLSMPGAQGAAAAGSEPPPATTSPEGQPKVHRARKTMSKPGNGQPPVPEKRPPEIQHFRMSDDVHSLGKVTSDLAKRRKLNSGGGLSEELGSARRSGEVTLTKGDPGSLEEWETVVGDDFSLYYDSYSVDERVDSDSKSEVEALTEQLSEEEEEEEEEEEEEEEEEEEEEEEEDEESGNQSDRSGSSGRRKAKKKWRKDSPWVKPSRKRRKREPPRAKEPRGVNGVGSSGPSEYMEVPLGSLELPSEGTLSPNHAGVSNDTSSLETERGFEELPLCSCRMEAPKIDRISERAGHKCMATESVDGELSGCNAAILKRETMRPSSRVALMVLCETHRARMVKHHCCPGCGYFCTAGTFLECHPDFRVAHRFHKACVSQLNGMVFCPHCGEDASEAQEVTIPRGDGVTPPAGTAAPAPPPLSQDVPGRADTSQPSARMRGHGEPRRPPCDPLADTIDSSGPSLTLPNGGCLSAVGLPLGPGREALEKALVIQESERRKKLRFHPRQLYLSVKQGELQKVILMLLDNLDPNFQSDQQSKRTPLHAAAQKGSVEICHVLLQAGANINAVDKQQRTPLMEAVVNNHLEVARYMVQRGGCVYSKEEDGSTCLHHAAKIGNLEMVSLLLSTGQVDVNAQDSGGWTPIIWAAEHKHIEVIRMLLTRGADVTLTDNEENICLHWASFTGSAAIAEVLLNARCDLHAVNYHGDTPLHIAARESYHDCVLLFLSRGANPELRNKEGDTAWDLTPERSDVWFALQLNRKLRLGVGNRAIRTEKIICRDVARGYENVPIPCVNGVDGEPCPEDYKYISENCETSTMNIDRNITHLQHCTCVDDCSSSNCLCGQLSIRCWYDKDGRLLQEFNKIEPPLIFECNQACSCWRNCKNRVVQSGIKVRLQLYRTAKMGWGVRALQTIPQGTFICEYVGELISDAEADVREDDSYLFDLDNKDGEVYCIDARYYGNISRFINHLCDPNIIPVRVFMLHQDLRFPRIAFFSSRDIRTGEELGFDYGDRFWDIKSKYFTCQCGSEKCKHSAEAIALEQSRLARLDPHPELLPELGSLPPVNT
In words: Inhibition of human G9a using Histone H3 and SAM as substrate at 10 uM by radiometric Hotspot assay.

Experiment [10] concerns the target Protein arginine N-methyltransferase 1 (Homo sapiens) (UniProt Q99873). Kind of experiment: Inhibition of human PRMT1 using histone H4 and SAM as substrate at 10 uM by radiometric Hotspot assay.
The target in experiment [11] is T3, Histone-arginine methyltransferase CARM1 (Homo sapiens) (UniProt Q86X55).
T3 sequence (whole entry): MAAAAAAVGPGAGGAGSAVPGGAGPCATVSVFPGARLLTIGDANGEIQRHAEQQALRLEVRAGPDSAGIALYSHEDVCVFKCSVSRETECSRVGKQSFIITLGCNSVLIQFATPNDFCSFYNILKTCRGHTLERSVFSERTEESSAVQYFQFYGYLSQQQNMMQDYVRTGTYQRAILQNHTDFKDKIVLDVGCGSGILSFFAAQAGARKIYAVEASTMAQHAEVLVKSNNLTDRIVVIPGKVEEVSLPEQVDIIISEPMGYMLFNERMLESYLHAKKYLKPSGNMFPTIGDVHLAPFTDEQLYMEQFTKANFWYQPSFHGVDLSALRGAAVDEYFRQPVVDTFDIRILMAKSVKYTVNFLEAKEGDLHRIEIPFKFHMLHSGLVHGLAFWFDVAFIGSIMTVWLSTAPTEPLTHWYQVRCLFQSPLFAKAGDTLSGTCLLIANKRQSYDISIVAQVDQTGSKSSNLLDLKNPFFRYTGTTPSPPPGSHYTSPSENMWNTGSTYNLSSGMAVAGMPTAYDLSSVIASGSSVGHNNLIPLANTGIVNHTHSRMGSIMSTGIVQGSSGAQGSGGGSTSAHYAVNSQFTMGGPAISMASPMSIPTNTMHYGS
Kind of experiment: Inhibition of human PRMT4 using histone H3 and SAM as substrate at 10 uM by radiometric Hotspot assay.

The structures appear in SMILES notation. Activity calls are given as the source filed them. The calls are words filed in the database; no cut-off is given here.

Sequence of DNA (cytosine-5)-methyltransferase 3A (Homo sapiens) (Q9Y6K1 whole entry, looked up): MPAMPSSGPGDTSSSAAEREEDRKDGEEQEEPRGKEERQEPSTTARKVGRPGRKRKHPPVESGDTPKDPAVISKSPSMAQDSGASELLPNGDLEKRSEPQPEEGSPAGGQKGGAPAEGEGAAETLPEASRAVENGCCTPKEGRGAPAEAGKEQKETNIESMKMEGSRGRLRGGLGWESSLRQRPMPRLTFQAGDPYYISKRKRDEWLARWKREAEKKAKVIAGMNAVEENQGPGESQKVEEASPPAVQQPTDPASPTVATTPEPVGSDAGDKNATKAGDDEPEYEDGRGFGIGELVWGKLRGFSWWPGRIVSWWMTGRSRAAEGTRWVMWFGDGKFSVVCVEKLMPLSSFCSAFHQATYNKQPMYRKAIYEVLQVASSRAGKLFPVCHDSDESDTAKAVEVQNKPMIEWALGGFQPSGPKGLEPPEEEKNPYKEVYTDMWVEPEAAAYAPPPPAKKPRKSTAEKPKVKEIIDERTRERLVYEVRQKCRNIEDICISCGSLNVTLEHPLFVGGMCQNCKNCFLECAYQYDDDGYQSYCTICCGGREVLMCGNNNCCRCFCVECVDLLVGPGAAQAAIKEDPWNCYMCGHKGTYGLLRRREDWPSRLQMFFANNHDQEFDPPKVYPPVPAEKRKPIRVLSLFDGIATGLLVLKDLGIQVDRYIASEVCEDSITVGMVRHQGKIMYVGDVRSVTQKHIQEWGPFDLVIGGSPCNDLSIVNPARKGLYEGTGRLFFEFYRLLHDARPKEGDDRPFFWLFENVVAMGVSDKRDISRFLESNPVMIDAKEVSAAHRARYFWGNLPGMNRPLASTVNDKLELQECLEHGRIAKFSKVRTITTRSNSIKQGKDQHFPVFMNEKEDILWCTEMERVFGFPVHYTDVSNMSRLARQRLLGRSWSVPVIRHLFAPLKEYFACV
Sequence of Histone-lysine N-methyltransferase, H3 lysine-79 specific (Homo sapiens) (Q8TEK3 whole entry, looked up): as the sequence (Q8TEK3 whole entry, looked up) above
Sequence of Protein arginine N-methyltransferase 1 (Homo sapiens) (Q99873 whole entry, looked up): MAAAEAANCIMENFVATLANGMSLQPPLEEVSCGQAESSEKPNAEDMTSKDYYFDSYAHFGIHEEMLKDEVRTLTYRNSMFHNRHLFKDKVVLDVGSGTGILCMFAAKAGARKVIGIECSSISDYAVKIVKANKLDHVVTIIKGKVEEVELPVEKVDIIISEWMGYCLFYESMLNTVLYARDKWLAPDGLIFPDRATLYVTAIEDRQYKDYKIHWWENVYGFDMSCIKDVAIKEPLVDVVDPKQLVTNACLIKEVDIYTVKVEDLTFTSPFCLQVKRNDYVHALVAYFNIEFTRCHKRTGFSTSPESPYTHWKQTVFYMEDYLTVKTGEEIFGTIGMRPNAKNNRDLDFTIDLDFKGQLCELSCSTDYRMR

One may read the DC50 as the midpoint of the concentration-degradation curve. By inhibition is commonly meant the relative decrease from the control value, in per cent. Regarding `Cc1ncsc1-c1ccc([C@H](CC(=O)NCCCCCCNC(=O)COc2nc(N)nc(Nc3cc(S(N)(=O)=O)ccc3N[C@@H](c3cccc4c3OC(F)(F)O4)c3ncccc3Cl)n2)NC(=O)[C@@H]2C[C@@H](O)CN2C(=O)[C@@H](NC(=O)C2(F)CC2)C(C)(C)C)cc1`, the Activity result in experiment [1] is “Dose-dependent-effect”. Moreover, the DC50 in experiment [1] turned out to be 25 nM. For the same molecule, the fold change (FC) was determined as 0.29 in [2], 0.97 in experiment [3], 0.34 in experiment [4] and 0.17 in experiment [5]. Further, in the experiment with MOLM-13, the result was inactive. In experiment [6], this molecule had an inhibition of over 95%. For the same molecule, the inhibition result in experiment [7], in experiment [8], in experiment [9], in experiment [10] and in [11] was “inactive” throughout.
